Source: patent publication US20120329721A1, “MEANS FOR PREVENTING AND TREATING CELLULAR DEATH AND THEIR BIOLOGICAL APPLICATIONS” (CHIESI FARMACEUTICI S.P.A., priority 2003, published 2012)
Where two headings read alike, the source gives them in different places. Starred links: 1 amine or outer side, 2 acyl side, 3 side chain; linkers in the order of their positions; H or OH if unused. Positions of bridges follow the written chain, without caps; N, C: chain ends. Non-standard residues stand in square brackets, D forms with d. Residues, ends and D or L forms follow the SMILES beside them. Chains are numbered I, II in the order given. *: point of attachment. Actinocin(9to1) = Cc1c2oc3c(C)ccc(C(=O)[*:1])c3nc-2c(C(=O)[*:2])c(N)c1=O; X1 = COC(=O)C[C@H](N*)C(=O)COc1c(F)cccc1F; Sta = CC(C)C[C@H](N)[C@@H](O)CC(=O)O; Quinaldoyl = O=C(c1ccc2ccccc2n1)*; NMeV = CN[C@H](C(=O)O)C(C)C; Isovaleryl = CC(C)CC(=O)*; Cbz = O=C(OCc1ccccc1)*; Sar = CNCC(=O)O; CH2F = FC*

What was measured:
primary cortical neurons [1] = assay: Real-time FC and fixed-time FM detection of ΔΨm and PMP in neurons treated with neurotoxic molecules; assay type: cell-based, mouse; details: for ΔΨm and PMP state of non-trypsinized neurons (FM): FM co-detection JC-1/7-AAD, 45 minutes (mClCCP 100 μM, 30 min)
primary cortical neurons [2] = assay type: cell-based
[3] = test system: neonatal ischemic brain injury in 7 day-old rats
[4] = target: T1, human recombinant caspase-2 (Homo sapiens, UniProt P42575); assay: In vitro VDVAD-AMC cleavage by recombinant caspase-2; assay type: biochemical; details: inhibitor 2 μM, 50 μM VDVAD-AMC, caspase-2 125 U, 30 min at 37° C.
T1 construct: purchased BIOMOL
T1 sequence (P42575 170-325 limits assumed): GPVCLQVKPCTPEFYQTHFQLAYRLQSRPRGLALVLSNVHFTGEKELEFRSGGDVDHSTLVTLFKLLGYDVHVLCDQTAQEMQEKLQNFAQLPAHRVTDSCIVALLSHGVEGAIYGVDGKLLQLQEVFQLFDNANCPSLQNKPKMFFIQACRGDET
T1 sequence (P42575 348-452 limits assumed): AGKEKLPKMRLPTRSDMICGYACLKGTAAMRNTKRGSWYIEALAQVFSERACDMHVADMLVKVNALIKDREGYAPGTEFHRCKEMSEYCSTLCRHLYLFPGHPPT
Experimental: Activity of human recombinant caspase-2 (BIOMOL QuantiZyme™ Assay System) was assessed in 100 μl assay buffer (50 mM HEPES, pH 7.4, 100 mM NaCl, 0.1% CHAPS, 10 mM DTT, 1 mM EDTA, 10% glycerol).

Jurkat cells = assay: VP16-induced cell death of Jurkat cells, cytoprotection assay; assay type: cell-based, human; details: VP16 10 μM, 7-8 hrs; inhibitors 50 μM
[5] = SD model, compound added at the start of SD at the concentration of column '[ ], μM' (first concentration/target where two are printed)

## CCO [ethanol]
Primary cortical neurons [1]
  ΔΨm and PMP state of non-trypsinized neurons (FM): induces a rapid PMP
Primary cortical neurons [1]; real-time FC, after 5 minutes
  PMP: 98%
  ΔΨm loss: 75%

## Cn1cnc(N)c2ncnc1-2 [3-Methyladenine]
Primary cortical neurons [2]; [5]
  Survival: No

## CC(=O)OCOC(=O)CN(CC(=O)OCOC(C)=O)c1ccccc1OCCOc1ccccc1N(CC(=O)OCOC(C)=O)CC(=O)OCOC(C)=O [BAPTA-AM, acetoxymethyl ester of 1,2-bis(2-aminophenoxy)ethane-N,N,N′,N′-tetraacetic acid]
Primary cortical neurons [2]
  Survival: No

## O=C(NC(Cc1ccccc1)C(=O)NC(Cc1ccccc1)C(=O)CF)OCc1ccccc1 (stereo not drawn) [z-FF-fmk, N-benzyloxycarbonyl-Phe-Phe-fluoromethylketone] (Cbz-Phe-Phe-CH2F; configuration not given here)
Primary cortical neurons [2]; [5]
  Survival: No

## CCCCCCCCCCC1=C(C)C(=O)C(OC)=C(OC)C1=O [Decyl-Ubiquinone]
Primary cortical neurons [2]; [5]
  Survival: No

## CC(C)[C@H](CO)Nc1nc(Nc2cc(N)cc(Cl)c2)c2ncn(C(C)C)c2n1 [Aminopurvalanol]
Primary cortical neurons [2]; [5]
  Survival: No

## CCC(=C/[C@H](C)C/C=C/C(C)=C/[C@@H](C)C(=O)[C@@H](C)[C@H](O)[C@@H](C)C/C(C)=C/C(=O)O)/C=C/[C@@H]1OC(=O)C=C[C@@H]1C [Leptomycin B]
Primary cortical neurons [2]; [5]
  Survival: No

## N#CC(C#N)=NNc1cccc(Cl)c1 [mClCCP, carbonyl cyanide m-chlorophenylhydrazone]
Primary cortical neurons [1]
  ΔΨm and PMP state of non-trypsinized neurons (FM): induces ΔΨm disruption
Primary cortical neurons [1]; real-time FC, 100 μM
  time of treatment at which ΔΨm loss of neuronal population is maximal: 2 min

## COC(=O)C[C@H](NC(=O)[C@H](C)NC(=O)[C@@H](NC(=O)[C@H](CC(=O)OC)NC(=O)[C@@H](NC(=O)c1ccc2ccccc2n1)C(C)C)C(C)C)C(=O)COc1c(F)cccc1F [Q-VDVAD-OPH, Quinolinylcarnonyl-L-Valinyl-L-Aspartyl (methyl ester)-X-Vanilyl-L-Alaninyl-L-Aspartyl (methyl ester) 2,6-difluorophenyl ester] (Quinaldoyl-VD(OMe)VA-X1)
Primary cortical neurons [2]
  survival / protection of SD-neurons against cell death (apoptosis hallmarks overall): promotes survival of cortical neurons
[3]; single i.p. dose before ischemia, 48 hours, mean ±SEM
  infarct volume (% damage in the lesioned ipsilateral hemisphere): 5.7±2.3%
[3]; single i.p. dose before the ischemic onset, 48 hours after ischemia, vs ischemic control
  reduction in infarct volume: 74%
[3]; single i.p. dose, 48 hours
  animals (of the 12 studied) with a very marked smaller infarct: 8
  mean infarct of the four other animals: 16.5±1.32%
  median infarct of the 8 animals with a very marked smaller infarct: 0.5%
[3]; single i.p. dose, 48 hrs after ischemia
  animals that exhibited no infarct: 8
[4]
  inhibition of VDVAD-AMC cleavage by recombinant caspase-2: blocked

## CC(=O)Oc1ccccc1C(=O)O [Aspirin]
Primary cortical neurons [2]; [5]
  Survival: No

## CC[C@H](CO)Nc1nc(NCc2ccccc2)c2ncn(C(C)C)c2n1 [Roscovitine]
Primary cortical neurons [2]
  Survival: No

## Oc1ccc(-c2nc(-c3ccncc3)c(-c3ccc(F)cc3)[nH]2)cc1 [SB 202190]
Primary cortical neurons [2]; [5]
  Survival: No

## CC(=O)N[C@H](C(=O)N[C@@H](CC(=O)O)C(=O)N[C@H](C(=O)N[C@@H](C)C(=O)N[C@H](C=O)CC(=O)O)C(C)C)C(C)C [Ac-VDVAD-Cho] (Ac-VDVAD-aldehyde)
[4]
  inhibition of VDVAD-AMC cleavage by recombinant caspase-2: blocked

## COc1cccc(-c2cc(=O)c3ccccc3o2)c1N [PD 98059]
Primary cortical neurons [2]; [5]
  Survival: No

## N[C@@H](CCC(=O)N[C@@H](CS)C(=O)NCC(=O)O)C(=O)O [glutathion]
Primary cortical neurons [2]; [5]
  Survival: No

## CN1CC=C(c2ccccc2)CC1 [MPTP, 1-methyl-4-phenyl-1,2,3,6-tetrahydropyridine]
Primary cortical neurons [1]
  ΔΨm and PMP state of non-trypsinized neurons (FM): most neurons are ΔΨm low without any sign of PMP
Primary cortical neurons [1]; real-time FC, after 15 minutes of treatment
  ΔΨm low neurons: 49.6%

## C=C1[C@@H](O)[C@@H]2O[C@]3(CC[C@H](/C=C/[C@@H](C)[C@@H]4CC(C)=C[C@@]5(O[C@H](C[C@@](C)(O)C(=O)O)CC[C@H]5O)O4)O3)CC[C@H]2O[C@@H]1[C@@H](O)C[C@H](C)[C@H]1O[C@@]2(CCCCO2)CC[C@H]1C [Okadaic acid]
Primary cortical neurons [2]; [5]
  Survival: No

## Cc1c(C)c2c(c(C)c1O)CCC(C)(C(=O)O)O2 (stereo not drawn) [Trolox ®]
Primary cortical neurons [2]; [5]
  Survival: No

## O=S(=O)([O-])c1cc(N=C=S)ccc1C=Cc1ccc(N=C=S)cc1S(=O)(=O)[O-].[Na+].[Na+] [DIDS, 4,4′-Diisothiocyanastilbene-2,2′-disulfonic acid disodium salt]
Primary cortical neurons [2]; [5]
  Survival: No

## O=c1c(-c2ccc(O)cc2)coc2cc(O)cc(O)c12 [Genistein]
Primary cortical neurons [2]
  Survival: No

## CO/C1=C\C(C)=C\[C@@H](C)[C@@H](O)[C@@H](C)C/C(C)=C/C=C/[C@H](OC)[C@@H]([C@@H](C)[C@@H](O)[C@H](C)[C@@]2(O)C[C@@H](O)[C@H](C)[C@@H](C(C)C)O2)OC1=O [Bafilomycin A1]
Primary cortical neurons [2]; [5]
  Survival: No

## Ruthenium Red
Primary cortical neurons [2]; [5]
  Survival: No

## CC(=O)N[C@@H](CS)C(=O)O [N-Acetyl-Cystein]
Primary cortical neurons [2]; [5]
  Survival: No

## CC1CNCCN1S(=O)(=O)c1cccc2cnccc12 (stereo not drawn) [H-7]
Primary cortical neurons [2]; [5]
  Survival: No

## CC(C)CC(=O)N[C@H](C(=O)N[C@H](C(=O)N[C@@H](CC(C)C)[C@@H](O)CC(=O)N[C@@H](C)C(=O)N[C@@H](CC(C)C)[C@@H](O)CC(=O)O)C(C)C)C(C)C [Pepstatin] (Isovaleryl-VV[Sta]A[Sta]-OH)
Primary cortical neurons [2]; [5]
  Survival: No

## Cc1c2oc3c(C)ccc(C(=O)N[C@@H]4C(=O)N[C@H](C(C)C)C(=O)N5CCC[C@H]5C(=O)N(C)CC(=O)N(C)[C@@H](C(C)C)C(=O)O[C@@H]4C)c3nc-2c(C(=O)N[C@@H]2C(=O)N[C@H](C(C)C)C(=O)N3CCC[C@H]3C(=O)N(C)CC(=O)N(C)[C@@H](C(C)C)C(=O)O[C@@H]2C)c(N)c1=O [Actinomycin D] (I: T[dV]P[Sar][NMeV] / II: T[dV]P[Sar][NMeV]; ester I:1-I:C, II:1-II:C; linker I:N-II:N via Actinocin(9to1))
Jurkat cells
  terminal nuclear alterations and PMP in VP16-treated Jurkat cells: prevent neither ΔΨm loss nor PMP
  ΔΨm loss in VP16-treated Jurkat cells: prevent neither ΔΨm loss nor PMP
Primary cortical neurons [2]
  survival / protection of SD-neurons against cell death (apoptosis hallmarks overall): promote survival
Primary cortical neurons [2]; [5]
  Survival: Yes

## C[C@@H]1C[C@@H]([C@H](O)CC2CC(=O)NC(=O)C2)C(=O)[C@@H](C)C1 [Cycloheximide]
Jurkat cells
  terminal nuclear alterations and PMP in VP16-treated Jurkat cells: prevent neither ΔΨm loss nor PMP
  ΔΨm loss in VP16-treated Jurkat cells: prevent neither ΔΨm loss nor PMP
Primary cortical neurons [2]
  survival / protection of SD-neurons against cell death (apoptosis hallmarks overall): promote survival
Primary cortical neurons [2]; [5]
  Survival: Yes

## N-benzyloxycarbonyl-Phe-Ala-fluoromethylketone [z-FA-fmk]
Primary cortical neurons [2]; [5]
  Survival: No
